For series [1], the system named is ovariectomized (OVX) rats. The experiment in a line: Bone mineral density in the ovariectomized (OVX) rats (2). In kind it is in vivo, Sprague-Dawley rats. The following applies: orally seven times a week for 4 weeks; for Spinal BMD: L2-L5. On the procedure: Bone Mineral Density in the Ovariectomized (OVX) Rats (2)
Alfacalcidol was synthesized in Chugai Pharmaceutical Co., Ltd., Japan, dissolved in a vehicle (medium chain triglyceride, MCT) and diluted to a given concentration. The stock solutions were protected from light and stored at 4° C.
Eight-month-old female Sprague-Dawley (Crl:CD(SD)) rats were purchased from Charles River Japan Inc. (Kanagawa, Japan) and acclimated under standard laboratory conditions at 23±2° C. and 40-70% humidity. The rats were allowed free access to tap water and commercial standard rodent chow CRF-1 (Oriental Yeast Co. Ltd., Japan).
Sham-operated (n=8) and the ovariectomized (OVX) rats were used. The OVX rats were divided into each group (n=8) one day after the surgery. In the sham and OVX control groups, rats received the vehicle (MCT) p.o. at a dose of 1 ml/kg body weight (BW) every day. Each compound was given orally seven times a week for 4 weeks.
During the 24 hours from the last administration, urine was collected with metabolic cage, and blood was drawn from the jugular vein under ether anesthesia. Blood and urine samples were centrifuged to obtain the supernatant, which were stored at −20° C. until assay. The lumbar vertebrae and femora were removed. The lumbar vertebra and the right femur were stored i 70% ethanol at 4° C. for the measurement of bone mineral density (BMD).
(§1) Serum and Urine Biochemistry
Serum calcium (Ca) and inorganic phosphorus (Pi) concentrations were measured with an autoanalyzer (Hitachi 7170, Tokyo, Japan). The serum osteocalcin concentration was measured with Osteocalcin rat ELISA system (Smersham Pharmacia Biotech, Tokyo, Japan). Urinary Ca, Pi, and creatinine (Cre) were measured with an autoanalyzer. Urinary deoxypyridinoline (D-Pyr) was measured using a Metra DPD EIA kit (Quidel Co., USA), and the data were corrected for urinary Cre concentrations.
(§2) Measurement of Bone Mineral Density
The second through fifth lumbar vertebaral (L2-L5) BMD (mg/cm^2) and femoral BMD were measured by dual-energy X-ray absorptiometry (DCS-600-EX, Aloka, Japan).

For series [2], the system named is ovariectomized (OVX) rats. The experiment in a line: Bone mineral density in the ovariectomized (OVX) rats (1). In kind it is in vivo, Sprague-Dawley rats. The settings on record: orally five times a week for 4 weeks; for Spinal BMD: L2-L4. On the procedure: Bone Mineral Density in the Ovariectomized (OVX) Rats (1)
The compounds of the present invention were prepared as exemplified above, dissolved in a vehicle (medium chain triglyceride, MCT) and diluted to a given concentration. The stock solutions were protected from light and stored at 4° C.
Eight-month-old female Sprague-Dawley (Crl:CD(SD)) rats were purchased from Charles River Japan Inc. (Kanagawa, Japan) and acclimated under standard laboratory conditions at 24±2° C. and 50-60% humidity. The rats were allowed free access to tap water and commercial standard rodent chow CE-2 (Clea Japan Inc., Japan).
Sham-operated (n=8) and the ovariectomized (OVX) rats were used. The OVX rats were divided into each group (n=8) one day after the surgery. In the sham and OVX control groups, rats received the vehicle (MCT) p.o. at a dose of 1 ml/kg body weight (BW) five times a week. Each compound was given orally five times a week for 4 weeks. These animal studies were carried out in accordance with Chugai Pharmaceutical's ethical guidelines for animal care, and the experimental protocols were approved by the animal care committee of the institution.
During the 24 hours from the last administration, urine was collected with metabolic cage, and blood was drawn from the abdominal aorta under ether anesthesia. Blood and urine samples were centrifuged to obtain the supernatant, which were stored at −20° C. until assay. The lumbar vertebrae and femur were removed. The lumbar vertebra and the right femur were stored in 70% ethanol at 4° C. for the measurement of bone mineral density (BMD).
as §1
Serum calcium (Ca) and inorganic phosphorus (Pi) concentrations were measured with an autoanalyzer (Hitachi 7170, Tokyo, Japan). The serum osteocalcin concentration was measured with Osteocalcin rat ELISA system (Amersham Pharmacia Biotech, Tokyo, Japan). Urinary Ca, Pi, and creatinine (Cre) were measured with an autoanalyzer. Urinary deoxypyridinoline (D-Pyr) was measured using a Metra DPD EIA kit (Quidel Co., USA), and the data were corrected for urinary Cre concentrations.
as §2
The second through fourth lumbar vertebaral (L2-L4) BMD (mg/cm^2) and femoral BMD were measured by dual-energy X-ray absorptiometry (DCS-600-EX, Aloka, Japan).

For series [3], the system named is ECAC2 mRNA in Caco-2 cells. In kind it is cell-based. The gist of the method: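 Caco-2 cells grown 4 days, then exposed 1 day at 37° C to compounds in medium with 10% FBS, refreshed twice daily. ECAC2 mRNA by one-step TaqMan RT-PCR, normalized to GAPDH. EC50 from Emax model, expressed as ratio to LG190178 EC50.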

The structures appear in SMILES notation.

As for `C=C1/C(=C\C=C2/CCC[C@]3(C)[C@@H]([C@H](C)CCCC(C)C)CC[C@@H]23)C[C@@H](O)C[C@@H]1O` [Alfacalcidol], the “serum Ca” value in series [1] (0.125 microgram/kg/week) is 10.2 mg/dL; in series [1] (0.25 microgram/kg/week), 10.6 mg/dL; in series [1] (0.5 microgram/kg/week) it was 10.7 mg/dL. For the same compound, the entries for the “Spinal BMD” value in series [1] (0.125 microgram/kg/week), in series [1] (0.25 microgram/kg/week) and in series [1] (0.5 microgram/kg/week) were 182.1 mg/cm2, 180.9 mg/cm2 and 185.1 mg/cm2, respectively.

As for `CCC(CC)(c1ccc(CCC(O)C(C)(C)C)c(C)c1)c1ccc(OC[C@H](O)CCC(=O)[O-])c(C)c1.[Na+]` (stereo partly drawn) [Example 140, 5-(4-{1-Ethyl-1-[4-(3-hydroxy-4,4-dimethyl-pentyl)-3-methyl-phenyl]-propyl}-2-methyl-phenoxy)-4(R)-hydroxy-pentanoic acid sodium salt], in series [2] (0.75 microgram/kg/week), the “serum Ca” value was determined as 10.0 mg/dL and the “Spinal BMD” value is 186.6 mg/cm2. Moreover, in series [3], the “ECaC-2 mRNA induction activity in Caco-2 cells” value (from here on “ECaC-2 mRNA induction activity”) was 53%.

For `CCC(CC)(c1ccc(CCC(O)C(C)(C)C)c(C)c1)c1ccc(OC[C@H](O)CCC(=O)[O-])c(C)c1.[Na+]` (stereo partly drawn) [Example 141, 5-(4-{1-Ethyl-1-[4-(3-hydroxy4,4-dimethyl-pentyl)-3-methyl-phenyl]-propyl}-2-methyl-phenoxy)4(R)-hydroxy-pentanoic acid sodium salt], in series [2] (7.5 microgram/kg/week), the “serum Ca” value is 10.1 mg/dL and the “Spinal BMD” value is 184.4 mg/cm2. For the same compound, in series [3], the “ECaC-2 mRNA induction activity” value came out at 31%.

For `CCC(CC)(c1ccc(OCC(O)CO)c(C)c1)c1ccc(OCC(O)C(C)(C)C)c(C)c1` (stereo not shown) [LG190178, reference compound], the “ECaC-2 mRNA induction activity” value in series [3] worked out at 100%.

For the origin of these results see patent US20060025474A1, “Bisphenyl compounds useful as vitamin D3 receptor agonists” (priority 2004, published 2006).
